In one series the test system is Phytophthora infestans. It counts as in vivo. Conditions: tomato plants, protective spray, application rate 50 g/ha, evaluation 3 days after inoculation; 100% = no infection.

The molecule `Cc1noc(C)c1S(=O)(=O)n1nc(Cl)nc1-c1ccccc1` [Example 1] gave a melting point of 70 to 74 °C.
For `Cc1noc(C)c1S(=O)(=O)n1nc(Cl)nc1-c1ccccc1` [drawing 94], the Efficacy in % in the series with Phytophthora infestans is reported as 97%.

For orientation: melting point means the temperature of the solid-liquid transition.

Source of the values: patent US6384066B1, “Sulphonyltriazol derivatives and their use for combating micro-organisms” (priority 1998, dated 2002).
